In publication PMC8251916 (Chemistry (Weinheim an Der Bergstrasse, Germany), 2021):

How the values were obtained:
[1] = tested on: HeLa cervical carcinoma cells; test: Cytotoxicity, alamarBlue assay, HeLa; assay type: cell-based, human; conditions: Homo sapiens, HeLa; 72 h incubation, alamarBlue fluorescence; read-out: absolute EC50 HeLa
Description: (§1) Doxorubicin, suramin and miltefosine were used as control compounds.[ ^6b , ^9 ] After incubation with varied concentrations of the compounds for 72 h, cell viability was measured using either an alamarBlue™ assay (for MRC5, HeLa and T. brucei) or MTT assay (for L. major). Absolute EC50 values and selectivity indexes were then calculated from dose‐response curves (Table 2 and S14). […]
(§2) Cell culture reagents were purchased from Thermo Fisher Scientific (Waltham, MA, USA) and used as-is. The Dulbecco’s Minimal Essential Medium (DMEM) formulation contained either high glucose (4.5 g/L, catalogue number: 10569) or low glucose (1 g/L, catalogue number:
(§3) 10567). RPMI-1640 was provided without sodium pyruvate and with L-glutamine (catalogue number: 11875). Phosphate Buffered Saline (PBS) contained NaCl (9 g/L), KH2PO4 (144 mg/L) and Na2HPO4-7.H2O (795 mg/L, catalogue number: 10010049). TrypLE Express™ was provided with EDTA (458 mg/L) and without Phenol Red (catalogue number: 12604021).
MRC-5 cells (human lung fibroblasts) were grown in monolayer (37 °C, 5 % CO2 and 100 % humidity) in DMEM medium (1 g/L glucose), supplemented with 10% heat-inactivated Fetal Bovine Serum (hiFBS), 2 mM L-glutamine, 100 U / mL penicillin and […] streptomycin. HeLa (Human cervical carcinoma cell line) cells were maintained at 37 °C and 5 % CO2 in high glucose DMEM (4.5 g / L) supplemented with 10% hiFBS, 100 U / ml penicillin, […] streptomycin, 2 mM L-glutamine and non-essential aminoacids (1X).
(§4) Cells were cultured according to ATCC recommendations and were used for the experiments while in the exponential growth phase. […]
(§5) Cytotoxicity was measured through the alamarBlue® assay (Thermo Fisher Scientific).[S6,S13] Briefly, 5×10^3 MRC-5 or HeLa cells were seeded in 96-wells plates (100 µL / well) in the presence of increasing concentrations of compound. After 72 hrs of incubation at 37 °C, 20 µL of alamarBlue® solution (110 ng / ml) was added to each well and cells were reincubated for 4 hrs at 37 °C. Then, 50 µL of 3 % SDS were added to each well. The plate was incubated at 37 °C for an extra hour and then analysed by fluorescence with an Infinite F200 plate reader (TECAN Austria, GmbH). The excitation wavelength was fixed at 550 nm and the emission wavelength at 590 nm. The results are expressed as the concentration of compound that reduces

[2] = tested on: F21T-K+ (human telomeric G-quadruplex, mixed parallel/hybrid); test: FRET melting assay, human telomeric G4 in potassium buffer; assay type: binding; conditions: 200 nM DNA, PIPER and 3 not reliable (spectral overlap)
Description: (§6) With the library in hand, we began our investigation into G4 stabilization by conducting a Förster resonance energy transfer (FRET) melting assay to assess DNA stabilization using the procedure outlined by De Cian et. al. ^[13] […] The sequences examined (at 200 nM) were the human telomeric G4 in potassium buffer (F21T‐K^+, mixed parallel/hybrid G4) ^[14] and sodium buffer (F21T‐Na^+, antiparallel G4), ^[15] the c‐Myc promoter G‐quadruplex (FmycT‐K^+, parallel G4), ^[16] a polymorphic G4 found in T. brucei (FEBR1T‐K^+, a mixed G4 topology), ^[6b] and a hairpin duplex DNA sequence (F10T‐K^+). Together, these sequences represent targets for therapeutic intervention to treat parasitic infections, ^[6b] or cancer. ^[1b] The topology of each sequence was confirmed independently via circular dichroism (CD, Figure S1). […]
(§7) FRET melting assays were performed to assess ligand affinity for duplex and G-quadruplex
(§8) DNA. Briefly, oligonucleotides of interest were obtained labelled at the 5’ and 3’ ends with FAM (a fluorescence donor) and TAMRA (a fluorescence quencher), respectively. In the folded state, proximity of the donor and quencher result in no observed fluorescence from FAM, since energy is transferred non-radiatively to TAMRA by FRET. As the temperature is raised and the secondary structure denatures, the fluorophores move further apart and the fluorescence signal increases. From the resulting curve, the characteristic melting temperature (Tmax, also referred to as Tm) is defined as the temperature which corresponds to the maxima of the first derivative of the normalised fluorescence signal. The change in melting temperature (ΔTm) induced by the presence of a small molecule ligand provides an indication of the ligand’s ability to stabilise the DNA structure. FRET experiments were performed according to the […]
(§9) procedure reported by De Cian and co-workers[S3] on a Stratagene MX3005P. The method consisted of holding at 25 °C for 5 min, before heating at 1 °C/min to 96 °C in 1 °C increments, […]

[3] = tested on: L. major; test: Leishmaniacidal activity, MTT assay; assay type: cell-based; conditions: Leishmania major; 72 h incubation, MTT absorbance; read-out: absolute EC50 L. major
Description: Doxorubicin, suramin and miltefosine were used as control compounds.[ ^6b , ^9 ] After incubation with varied concentrations of the compounds for 72 h, cell viability was measured using either an alamarBlue™ assay (for MRC5, HeLa and T. brucei) or MTT assay (for L. major). Absolute EC50 values and selectivity indexes were then calculated from dose‐response curves (Table 2 and S14).
Invitrogen). L. major promastigotes (MHOM/IL/80/Friedlin) were cultured at 28 °C, 5 % CO2 in modified RPMI-1640 medium (Thermo Fisher Scientific, Waltham, MA, USA) with 10% hiFBS. Parasites were split every other day and maintained in their experimental growth phase (below 2 million parasites per mL). […]
The results are expressed as the concentration of compound that reduces cell growth by 50 % versus untreated control cells (EC50) using GraphPad Prism 7 (GraphPad Software) to fit the data to a sigmoidal curve. Data are presented as the average of three independent measurements all conducted in triplicate conditions. […]
The leishmaniacidal activity of the compounds on promastigotes L. major (MHOM/IL/80/Friedlin) was carried out as previously described.[S14] Briefly, 4 × 10^6 / mL promastigotes were incubated for 72 h at 28 °C in 96-well plates (50 µL/well) in the presence of increasing concentration of compounds. Cell proliferation was determined using an MTT-based assay (Sigma-Aldrich). Thus, after the 72 h incubation, 10 µL of MTT (5 mg/ml) were added to each well and parasites were reincubated for 4 hrs at 28 °C. Then, 50 µL of 20 % SDS were added to each well. The plate was then incubated at 37°C for 4-16 hrs and analysed using an Infinite F200 plate reader (TECAN Austria, GmbH). The absorbance was measured […]
at a wavelength of 540 nm and the EC50 was calculated as described above. Data are presented as the average of three independent measurements, all conducted in triplicate conditions. […]

[4] = tested on: MRC5 non-tumoral cells; test: Cytotoxicity, alamarBlue assay, MRC5; assay type: cell-based, human; conditions: Homo sapiens, MRC5, 72 h, 72 h incubation, alamarBlue fluorescence; read-out: absolute EC50 MRC5
Description: as §1, §2, §3
(§10) MRC-5 cells (human lung fibroblasts) were grown in monolayer (37 °C, 5 % CO2 and 100 % humidity) in DMEM medium (1 g/L glucose), supplemented with 10% heat-inactivated Fetal Bovine Serum (hiFBS), 2 mM L-glutamine, 100 U / mL penicillin and […]
(§11) streptomycin. […]
as §4, §5

[5] = tested on: F10T-K+ (hairpin duplex DNA); test: FRET melting assay, hairpin duplex DNA; assay type: binding; conditions: 200 nM DNA, PIPER and 3 not reliable (spectral overlap)
Description: as §6, §7, §8, §9

[6] = tested on: Febr1T-K+ (T. brucei G-quadruplex); test: FRET melting assay, T. brucei G4; assay type: binding; conditions: 200 nM DNA, PIPER and 3 not reliable (spectral overlap)
Description: as §6, §7, §8, §9

[7] = tested on: T. brucei; test: Trypanocidal activity, alamarBlue assay; assay type: cell-based; conditions: Trypanosoma brucei; 72 h incubation, alamarBlue fluorescence; read-out: absolute EC50 T. brucei
Description: as §1, §2, §3, §10, §11, §4
hiFBS. Parasites were split every other day and maintained in their experimental growth phase (below 2 million parasites per mL).
as §5

[8] = tested on: F21T-Na+ (human telomeric G-quadruplex, antiparallel); test: FRET melting assay, human telomeric G4 in sodium buffer; assay type: binding; conditions: 200 nM DNA, PIPER and 3 not reliable (spectral overlap)
Description: as §6, §7, §8, §9

[9] = tested on: FmycT-K+ (c-Myc promoter G-quadruplex, parallel); test: FRET melting assay, c-Myc promoter G4; assay type: binding; conditions: 200 nM DNA, PIPER and 3 not reliable (spectral overlap)
Description: as §6, §7, §8, §9

[10] = 5 μM ligand, 10 mM KCl, 90 mM LiCl, 10 mM Li cacodylate

Row | Structure (SMILES) | EC50 [1] | ΔTm F21T-K+ ([2]; 10 µM ligand) | EC50 [3] | EC50 [4] | ΔTm F10T-K+ ([5]; 10 µM ligand) | ΔTm Febr1T-K+ ([6]; 10 µM ligand) | EC50 [7] | ΔTm F21T-Na+ ([8]; 10 µM ligand) | ΔTm FmycT-K+ ([9]; 10 µM ligand) | ΔTm F21T-K+ ([2]; 1 µM ligand) | ΔTm F10T-K+ ([5]; 1 µM ligand) | ΔTm Febr1T-K+ ([6]; 1 µM ligand) | ΔTm F21T-Na+ ([8]; 1 µM ligand) | ΔTm FmycT-K+ ([9]; 1 µM ligand) | ΔTm F21T-K+ [2, 10] | ΔTm F10T-K+ [5, 10] | ΔTm Febr1T-K+ [6, 10] | ΔTm F21T-Na+ ([8]; 5 μM ligand, 100 mM NaCl, 10 mM Li cacodylate) | ΔTm FmycT-K+ ([9]; 5 μM ligand, 1 mM KCl, 99 mM LiCl, 10 mM Li cacodylate)
1 | CN1CCN(CCCN2C(=O)c3ccc(C(c4ccc5c(c4)C(=O)N(CCCN4CCN(C)CC4)C5=O)(C(F)(F)F)C(F)(F)F)cc3C2=O)CC1 [Compound 6] | > 100 µM | -2 ± 1 °C | > 100 µM | > 100 µM | 0 ± 1 °C | 2 ± 1 °C | 36 ± 2 µM | -8 ± 1 °C | -4 ± 1 °C | – | – | – | – | – | – | – | – | – | –
2 | CN1CCN(CCCN2C(=O)c3ccc(Oc4ccc5c(c4)C(=O)N(CCCN4CCN(C)CC4)C5=O)cc3C2=O)CC1 [Compound 5] | > 100 µM | -3 ± 1 °C | > 100 µM | > 100 µM | 0 ± 1 °C | 1 ± 1 °C | 67 ± 18 µM | -3 ± 1 °C | -3 ± 1 °C | – | – | – | – | – | – | – | – | – | –
3 | COc1cccc2c1C(=O)c1c(O)c3c(c(O)c1C2=O)C[C@@](O)(C(=O)CO)C[C@@H]3O[C@H]1C[C@H](N)[C@H](O)[C@H](C)O1 [Doxorubicin, reference compound] | 0.4 ± 0.05 µM | – | – | – | – | – | – | – | – | 10 ± 1 °C | 2 ± 1 °C | 5 ± 1 °C | 0 ± 1 °C | 8 ± 1 °C | – | – | – | – | –
4 | C[n+]1ccc(-c2c3nc(c(-c4cc[n+](C)cc4)c4ccc([nH]4)c(-c4cc[n+](C)cc4)c4ccc([nH]4)c(-c4cc[n+](C)cc4)c4nc2C=C4)C=C3)cc1 [TMPyP4, reference compound] | – | – | – | – | – | – | – | – | – | 33 ± 1 °C | 9 ± 1 °C | 32 ± 2 °C | 31 ± 2 °C | 34 ± 1 °C | – | – | – | – | –
5 | O=C1c2ccc3c4ccc5c6c(ccc(c7ccc(c2c37)C(=O)N1CCN1CCCCC1)c64)C(=O)N(CCN1CCCCC1)C5=O [PIPER, reference compound] | – | > 40 °C | – | – | – | 38 ± 7 °C | – | 22 ± 1 °C | 26 ± 1 °C | 33 ± 1 °C | 0 ± 1 °C | 21 ± 4 °C | – | 23 ± 1 °C | 37±2 °C | 1±1 °C | 33±1 °C | 17±2 °C | 21±2 °C
6 | CN1CCN(CCCNC(=O)c2ccc(C(=O)c3ccc(C(=O)NCCCN4CCN(C)CC4)c(C(=O)NCCCN4CCN(C)CC4)c3)cc2C(=O)NCCCN2CCN(C)CC2)CC1 [Compound 10] | > 100 µM | -2 ± 1 °C | > 100 µM | > 100 µM | 0 ± 1 °C | 1 ± 2 °C | 55 ± 3 µM | -2 ± 1 °C | -1 ± 1 °C | – | – | – | – | – | – | – | – | – | –
7 | CN1CCN(CCCN2C(=O)c3ccc(C(=O)c4ccc5c(c4)C(=O)N(CCCN4CCN(C)CC4)C5=O)cc3C2=O)CC1 [Compound 7] | > 100 µM | -3 ± 1 °C | > 100 µM | > 100 µM | 0 ± 1 °C | 1 ± 1 °C | 70 ± 13 µM | -3 ± 2 °C | -3 ± 1 °C | – | – | – | – | – | – | – | – | – | –
8 | CCCCCCCCCCCCCCCCOP(=O)([O-])OCC[N+](C)(C)C [Miltefosine, reference compound] | – | – | 5.8 ± 0.01 µM | – | – | – | – | – | – | – | – | – | – | – | – | – | – | – | –
9 | Cc1ccc(C(=O)Nc2ccc(S(=O)(=O)O)c3cc(S(=O)(=O)O)cc(S(=O)(=O)O)c23)cc1NC(=O)c1cccc(NC(=O)Nc2cccc(C(=O)Nc3cc(C(=O)Nc4ccc(S(=O)(=O)O)c5cc(S(=O)(=O)O)cc(S(=O)(=O)O)c45)ccc3C)c2)c1 [Suramin, reference compound] | – | – | – | – | – | – | 0.044 ± 0.006 µM | – | – | – | – | – | – | – | – | – | – | – | –
10 | CN1CCN(CCCn2c(=O)c3cc4c(=O)n(CCCN5CCN(C)CC5)c(=O)c4cc3c2=O)CC1 [Compound 8] | > 100 µM | 1 ± 1 °C | > 100 µM | > 100 µM | 0 ± 1 °C | -2 ± 1 °C | 52 ± 7 µM | 1 ± 1 °C | -2 ± 1 °C | – | – | – | – | – | – | – | – | – | –
